Source: patent US6300112A, “β-xylosidase, nucleotide sequence encoding it, and use thereof” (Danisco Ingredients A.S (Danisco A/S), priority 1995, dated 2001)

What was measured:
[1] = target: T1, Aspergillus niger β-xylosidase II (X-II, xylD), SEQ ID NO. 1 (Aspergillus niger, UniProt O00089); test: Inhibition of β-xylosidase X-II by xylose; format: biochemical; conditions: β-xylosidase X-II of the invention; read-out: inhibition Ki (mM xylosc)
T1 construct: Mono Q peak II
Protocol: (§1) Table A summarises the specificity pattern of two β-xylosidases X-I and X-II of the invention--presumably differing only in their glycosylation pattern, not in their amino acid sequence--and of the β-xylosidase reported by Rodionova et al., and their inhibition by xylose.
(§2) DEAE-Sephadex A-50 was equilibrated in 50 mM sodium acetate buffer pH 5.0 and was added to the culture filtrate. After 30-60 minutes of stirring at 4° C., the DEAE-Sephadex together with the culture filtrate were passed through a funnel with a glass filter holder and the DEAE-Sephadex A-50 was transferred to a column. […] Fractions containing β-xylosidase activity, as was detected using the chromogenic substrate 4-methylumbelliferyl-β-D-xyloside (detects β-xylosidases and endo-xylanases) (Sigma #M7008), were pooled and desalted by dialysis against Millipore water and subsequently dialysed against 20 mM piperazine-HCl buffer pH 5.0. […] The specific activity of both β-xylosidase I and II towards the artificial substrate PNP-X was determined as described by Rodionova et al., 1983, to be respectively 60.2 and 60.9 U/mg protein. In addition the activity against PNP-β-D-glucopyranoside (Sigma #N7006) was determined to be 0.2 and 0.3 U/mg, against PNP-β-D-galactopyranoside (Sigma #N1252) 0.0 and 0.0 U/mg and against PNP-β-L-arabinofuranoside(Sigma #N3641) 2.8 and 3.4 U/mg respectively for β-xylosidase I and II.

[2] = target: Aspergillus niger β-xylosidase according to Rodionova et al. (1983); conditions: β-xyl (Rodionova), comparison enzyme; read-out: inhibition Ki (mM xylosc); cited from earlier work
[3] = target: T2, Aspergillus niger β-xylosidase I (X-I, xylD), SEQ ID NO. 1 (Aspergillus niger, UniProt O00089); test: Inhibition of β-xylosidase X-I by xylose; format: biochemical; conditions: β-xylosidase X-I of the invention; read-out: inhibition Ki (mM xylosc)
T2 construct: Mono Q peak I
T2 sequence (O00089 27-804): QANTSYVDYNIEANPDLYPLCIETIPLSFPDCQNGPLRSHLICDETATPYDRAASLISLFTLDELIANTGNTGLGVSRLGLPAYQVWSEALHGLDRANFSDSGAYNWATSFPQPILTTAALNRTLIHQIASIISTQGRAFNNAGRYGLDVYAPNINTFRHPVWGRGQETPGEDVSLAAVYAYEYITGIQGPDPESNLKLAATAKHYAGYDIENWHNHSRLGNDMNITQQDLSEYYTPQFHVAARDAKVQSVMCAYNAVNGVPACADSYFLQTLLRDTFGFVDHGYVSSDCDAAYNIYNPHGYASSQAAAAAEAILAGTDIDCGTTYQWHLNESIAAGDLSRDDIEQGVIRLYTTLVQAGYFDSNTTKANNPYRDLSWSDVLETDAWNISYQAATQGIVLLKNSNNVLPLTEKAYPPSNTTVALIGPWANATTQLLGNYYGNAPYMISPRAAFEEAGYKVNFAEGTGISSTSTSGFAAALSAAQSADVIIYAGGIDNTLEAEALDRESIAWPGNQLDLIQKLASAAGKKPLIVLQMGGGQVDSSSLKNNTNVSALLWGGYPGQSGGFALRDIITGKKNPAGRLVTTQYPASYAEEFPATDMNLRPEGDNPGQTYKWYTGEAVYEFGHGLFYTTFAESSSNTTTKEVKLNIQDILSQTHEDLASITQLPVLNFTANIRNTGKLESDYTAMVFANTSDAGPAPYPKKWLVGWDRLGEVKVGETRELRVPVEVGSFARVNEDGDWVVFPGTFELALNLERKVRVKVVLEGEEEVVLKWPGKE
Protocol: as §1, §2

T1 sequence (O00089 27-804): as above

**Q.** With xylose as the substance, how does the Ki [1] read?
**A.** The Ki was 13.2 mM.

**Q.** What about the Ki [2] of the same substance?
**A.** The Ki was 2.9 mM.

**Q.** What about the Ki [3] of the same substance?
**A.** Its Ki is 9.8 mM.
